This note sets out measurements from patent US12016834B2, “Small molecule inhibitors of SLC25A1” (GEORGETOWN UNIVERSITY, priority 2017, dated 2024).

Assay [1] concerns H1299 cells. The assay is described as follows: Proliferation / viability in monolayer (2D) cultures. The assay is classed as cell-based, human. As to conditions: for anti-proliferative activity in 2D cultures: Rotenone 10 nM, Oligomycin 1 mM, metformin 3 mM (FIG. 3I). On the procedure:
(§1) Cellular proliferation and cytotoxicity assays. The proliferative capacity of cells was assessed by plating cells in triplicate at a concentration of 2,000 to 10,000 cells/well in 96 well plates in triplicate, with or without drug treatment for 48 hours. The cells were then washed with 1×PBS and fixed with cold 100% methanol at−20° C. for 20 minutes. Methanol was washed off and the cells were stained with 0.5% crystal violet dissolved in 25% methanol and water at 4° C. for 20 minutes. The staining was washed off using deionized (DI) water and the plate was dried overnight. On the second day, 100 mM sodium citrate in 50% ethanol and 50% water was added to the wells and absorbance at 550 nm was measured and corrected with readings at 405 nm. In other experiments, cell viability was assessed by trypan blue exclusion and visual count of the live cells was performed.

Assay [2] has as its system H1299 cells. The assay is described as follows: Sphere forming / self-renewal assay. As to conditions: for self-renewal: single-cell derived spheres, Rotenone 10 nM, Oligomycin 1 mM, metformin 3 mM (FIG. 3I). Format: cell-based, human. Here is the method:
Growth of monolayers and sphere cultures. Tumor cell lines were grown as monolayers in complete Dulbecco's Modified Eagle's Media (DMEM, Gibco; supplemented with 10% fetal bovine serum and 1% of 5,000 units/mL of penicillin-streptomycin (pen-strep), Gibco). To generate spheroids, cells were grown in Falcon bacteriological petri dishes coated with 2% poly(2-hydroxyethyl methacrylate) dissolved in 100% ethanol. The growth media was DMEM/F12 (Gibco) supplemented with 20 ng/mL of epidermal growth factor (EGF), 5 ng/mL of fibroblast growth factor, 0.375% 100× N2 supplements (Gibco), and 1% pen-strep. Monolayer cells were dissociated using 0.25% trypsin-edta (Gibco), whereas spheroid cultures were dissociated using StemPro Accutase (Gibco). Patient derived cell lines were grown as described below in the primary lung cultures section.
Self-renewal assays. Tumor cells cultured as spheroids were dissociated and diluted in 2× sphere media containing 1% methyl cellulose, which was previously dissolved in cold DMEM/F12 media. Either 200, 500, or 1000 cells were then plated in each 96 well and were incubated in the presence or absence of drugs, as indicated. The spheres were allowed to form for a period of a week to ten days, at which point they were counted. Six biological replicates were used for quantification of the results.

In assay [3] the test system is H1299 cells. The assay is described as follows: Glycolysis: ECAR (Seahorse) and lactic acid levels. The following applies: sphere-grown CSCs (FIG. 11C). Format: cell-based, human. On the procedure:
Cells, reagents, antibodies, primers. The H1299 cell lines and other cell lines employed in this study were obtained from ATCC or from the tissue culture core facility at LCCC. Cells were grown in Dulbecco's Modified Eagle's Medium (DMEM, 25 mM glucose, with glutamine and pyruvate from Invitrogen; Carlsbad, CA) and supplemented with 10% fetal calf serum (FCS). […] The SLC25A1 specific shRNA vectors were purchased from Sigma. The vector expressing human SLC25A1 untagged or Flag-Myc epitope tagged were from Origene; Rockville, MD (#SC120727 and RC200657, respectively). The anti-SLC25A1 antibody used in immuno-blot was from Santa Cruz Biotech, #sc-86392 employed at 1:1000 dilution. Citrate, lactate, and PFK measurements were performed by using commercially available kits (Biovision (Milpitas, CA)).
(§2) Seahorse extracellular flux analyzer experiments. Cells derived from spheres or monolayer cultures were dissociated and plated overnight at 12,000 cells/well in DMEM with 10% FBS, 5 mM glucose, 1 mM pyruvate, 2 mM glutamine.
(§3) For the mitochondrial stress test, the media was replaced with DMEM without FBS or bicarbonate, containing 5 mM glucose, 1 mM pyruvate, 2 mM glutamine and placed in a CO2 free incubator at 37° C. for 1 hour, and then transferred to the Xf96 extracellular flux analyzer (Agilent; Santa Clara, CA). The program consisted of 3 measurements of OCR/ECAR before the injection of each drug: oligomycin (0.5 μM final concentration), FCCP (2 μM) and rotenone/antimycin (0.5 μM of each). For the glycolysis stress test, cells were plated overnight as above, and the media was washed twice the following day with DMEM without FBS, bicarbonate, glucose, glutamine or pyruvate, and incubated in this media in a CO2 free incubator with/without drug treatments at 37° C. for 4 hours. There were 3 measurements of OCR/ECAR before each injection: glucose (10 mM final concentration), oligomycin (0.5 […] (50 mM). For the analysis of glutamine oxidation, the protocol was the same as the glucose stress test, but with glutamine being the only compound injected (final concentration 4 mM) and OCR/ECAR measured for 60 minutes. When spheres were analyzed, they were dissociated with StemPro® Accutase® (Thermo Scientific; Waltham, MA) and plated under the same conditions as above as for the monolayers the day before the assay (H1299 spheres), or in stem cell media (See Stem Cell Media) with the wells coated in 15 μL of 2% geltrex diluted in DMEM:F12 (Thermo Scientific). The results were normalized to cell number.

The subject of assay [4] is MP1 cells. Briefly: Seahorse OCR and ATP in patient-derived cells. The assay is classed as cell-based, human. As to conditions: monolayer, chronic treatment for several passages (FIG. 6A). On the procedure:
Primary lung cancer cultures and GMSC. Surgical samples were minced and digested with dispase (50 U/ml) in DMEM media containing 5% serum for 1 hour. Pleural effusions were centrifuged, washed once in PBS, and then plated. All primary cultures were initially grown on 6-well plates pre-coated with 2% Geltrex (Life Technologies; Carlsbad, CA) and 1% Maxgel (Sigma Aldrich). Maxgel is a humanized matrix, native and non-denatured. The inclusion of Maxgel in the system enhanced the initial attachment of primary tumor cells, partially because Maxgel provides a more natural ECM conformational substrate. The day after plating, the media containing unattached cells was typically transferred to a fresh plate, in most of cases generating new attached cultures. The media (Stem Cell Media) is the DMEM/F12 (Thermo-Fisher #11320-033 basic media) supplemented with the following components: Insulin-Transferrin-Sodium selenite (ITS; 1:1000; Sigma #11884); glutamine (Thermo-Fisher) to 4 mM final concentration; sodium pyruvate (Thermo-Fisher) to 2 mM final concentration; rock inhibitor (Y-27632) 10 micrograms/mL; 2-5% Knock Out Serum Replacement (KNOSR, Thermo-Fisher #10828-028); 0.5% ALBUMAX-(Lipid enriched BSA; Thermo-Fisher #11020-021); N2 Supplement (Thermo-Fisher) 1:250; EGF (5 ng/ml; Peprotech); hFGF (20 ng/ml; Bechman); and IGF-1 (Peprotech; 10-20 ng/ml).
as §2, §3

Assay [5] deals with MP1 cells. Briefly: Apoptosis by annexin V and PI flow cytometry. The assay is classed as cell-based, human. As to conditions: drug alone. Here is the method:
Flow cytometry. Tumor cells were trypsinized and washed in 1×PBS. The cells were then stained with the antibodies of choice: CD166-PE (Biolegend), CD133-647 (Biolegend), or CD44 (Biolegend), in 1% BAS-PBS. The cell cycles of monolayers or spheres of the cells were analyzed by fixing the cells in cold 75% ethanol. The annexin V (Biolegend) and propidium iodide (Biolegend) experiments were carried out.

Assay [6] has as its system MP1 cells. The assay is described as follows: Tumor xenograft in immuno-compromised mice. The assay is classed as in vivo. Here is the method: Mice and treatments. To produce tumor xenografts, 5×10^6 cells derived from either monolayer cultures or GMSC expanded spheres were dissociated with Accutase, resuspended in PBS, and injected subcutaneously in the flanks of female balb athymic mice. Once detectable tumors started to form, their sizes were measured with a caliper in three dimensions and mice were randomized in the different treatment groups. […] Cisplatin was administered at 26 mg/kg every three or four days. AZD9291 was administered at 25/mg/Kg every 3 days. Serial measurements were made every day after the identification of the initial tumor mass to determine growth curves in vivo. Tumor volume was calculated using the formula for a prolate spheroid: volume=[…], where a is the width and b is the length. All animals were sacrificed when the tumors exceeded 1.5 cm. At the completion of experiments, tumors were excised, weighed, and the statistical significances of differences in tumor volume were assessed. Animals were monitored once a week for the presence of signs of disease, particularly neurological disturbances or weight loss, and they were weighed periodically.
Statistics. For the animal studies, power calculations for each treatment group were first determined. The number of animals was calculated to detect a 50% difference at alpha=0.05 and power=0.8. Statistical significance was assessed using both unpaired, two-tailed Student t test, and analysis of variance (ANOVA). Significant differences are indicated using the standard […] scale (P<0.05, significant; P<0.01, highly significant; P<0.001, extremely significant).

Assay [7] has as its system MP2 cells. The assay is described as follows: Viability (Crystal Violet) and drug interaction (R index). Format: cell-based, human. The following applies: single drug, 5 days, monolayer. Here is the method:
as §1, with “The proliferative capacity of cells was assessed by plating cells in triplicate at a concentration of 2,000 to 10,000 cells/well in 96 well plates in triplicate, with or without drug treatment for 48 hours.” left out
(§4) Statistical methods for drug interactions. […] Sexp/Sobs=1.0 denotes an additive interaction, while >1.0 denotes a synergistic interaction. R index values approaching 2.0 are indicative of strong synergy.

Assay [8] concerns MP1 cells. The description is as above. The assay is classed as cell-based, human. The following applies: single drug, 5 days, monolayer. On the procedure: as §1, with “The proliferative capacity of cells was assessed by plating cells in triplicate at a concentration of 2,000 to 10,000 cells/well in 96 well plates in triplicate, with or without drug treatment for 48 hours.” left out
as §4

Assay [9] has as its target SLC25A1 (Homo sapiens, UniProt P53007). Briefly: Surface plasmon resonance (SPR) binding to recombinant purified SLC25A1. As to conditions: steady state, 1:1 binding model; human protein. Here is the method:
Surface Plasmon Resonance (SPR). SPR experiments were performed on a Biacore 4000 instrument at room temperature. The NTA sensorchip surface was activated by injecting 0.5 mM NiCl2 for 1 minute. Histidine-tagged recombinant purified SLC25A1 protein (0.07 mg/ml stock concentration) was used as the ligand to capture on the sensor surface. SLC25A1 was dissolved (1:50 dilution) in PBS-P (20 mM phosphate buffer (pH 7.4), 2.7 mM KCl, 137 mM NaCl and 0.05% surfactant P20) buffer and captured onto spots 2 and 4. SLC25A1 was captured to a level of ˜3000. PBS-P was used as the capture running buffer. Small molecules were used as analytes to flow over the ligand immobilized surface. Spot 3 of all flow cells were used as reference. The calculated theoretical Rmax was ˜30 RU based on a 1:1 interaction. The kinetics experiments were performed in the presence of HBS-P (10 mM HEPES (pH7.4), 150 mM NaCl, and 0.05% surfactant P20). The flow rate of all the solutions was maintained at 30 μL/min. The analyte concentrations were 0 μM, […], 6.25 μM, 12.5 μM, 25 μM, 50 μM, and 100 μM. Analyte concentrations showing signs of aggregation were excluded from the analysis. Data were analyzed by Biacore BiaEvaluation software for 1:1 steady state binding model.
(SPR reads the build-up and loss of mass on a sensor chip optically.)

Sequence of SLC25A1 (P53007 14-311): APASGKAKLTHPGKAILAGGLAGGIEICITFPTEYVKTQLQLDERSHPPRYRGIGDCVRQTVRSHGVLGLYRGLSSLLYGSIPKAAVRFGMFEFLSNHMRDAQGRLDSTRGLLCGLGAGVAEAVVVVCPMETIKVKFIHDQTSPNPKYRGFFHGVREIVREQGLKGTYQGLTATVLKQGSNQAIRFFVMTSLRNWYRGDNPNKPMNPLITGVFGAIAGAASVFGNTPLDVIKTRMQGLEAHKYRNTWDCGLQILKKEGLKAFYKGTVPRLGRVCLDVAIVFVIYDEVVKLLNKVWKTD

For `C=C(C)[C@H]1Cc2c(ccc3c2O[C@@H]2COc4cc(OC)c(OC)cc4[C@@H]2C3=O)O1` [rotenone], in [1], the “anti-proliferative activity in 2D cultures” value is listed as “no anti-proliferative activity”. Further, the self-renewal result in assay [2] is “significantly reduced self-renewal”.
Taken in the same sequence, the figures for `CC[C@H]1/C=C/C=C/C[C@@H](C)[C@H](O)[C@@](C)(O)C(=O)[C@@H](C)[C@H](O)[C@@H](C)C(=O)[C@@H](C)[C@H](O)[C@@H](C)/C=C/C(=O)O[C@@H]2[C@H](C)[C@H](CC1)O[C@]1(CC[C@H](C)[C@H](C[C@@H](C)O)O1)[C@H]2C` [oligomycyn, oligomycin] were “no anti-proliferative activity” and “significantly reduced self-renewal”.
As to `O=C(O)CCCCC(CCSCc1ccccc1)SCc1ccccc1` (stereo not shown) [CPI-613], the “anti-proliferative activity, ranges of concentrations” value in assay [1] (monolayer or methylcellulose single cells (FIG. 3J)) is given as “anti-proliferative activity at comparable ranges of concentrations”. The “activity in spheres versus 2D/monolayer cultures” value in [2] (sphere forming assay compared with monolayer) was “more effective in sphere forming assays than in monolayer cultures”.
For `CN(C)C(=N)N=C(N)N` [metformin], in assay [1], the “anti-proliferative activity in 2D cultures” value is listed as “no anti-proliferative activity”. The self-renewal entry in assay [2] is listed as “significantly reduced self-renewal”. Further, in assay [3], the glycolytic rates entry was “enhanced glycolytic rates”.
In the case of `N.N.[Cl][Pt][Cl]` [cisplatin, reference compound], the “mitochondrial respiration after chronic drug treatment” value in [4] is “dramatic shift towards mitochondrial respiration”. In addition, the apoptosis entry in [5] is on record as “did not induce apoptosis”. The “stem cell markers in tumors (immuno-blot)” value in assay [6] (GMSC-derived tumors (FIG. 7F)) is “enhanced”. Besides, the “tumor growth, cisplatin alone” value in assay [6] (cisplatin 3 mg/Kg every three days (FIG. 7D)) is on record as “inhibition of tumor growth but this effect was lost over time”. For the same molecule, the “time until most tumors restarted to grow” value in [6] (cisplatin alone) is given as “two”. The “response to drug (viability)” value in [7] and in assay [8] was “minimal response” throughout.
One may read the Kd as the equilibrium constant for the complex coming apart. Consider `O=C(O)c1ccc(Cl)c(S(=O)(=O)Nc2cccc([N+](=O)[O-])c2)c1` [CTPI-1], for which the “growth inhibitory activity, range of concentrations” value in assay [2] (human cells (FIGS. 2A and 2E)) is reported as “millimolar range of concentrations”. Moreover, the sphere forming capacity entry in assay [2] (one week after treatment, BTA 2 mM, CTPI 1 mM (FIG. 9F)) is listed as “reduced sphere forming capacity”. Further, the Kd in [9] turned out to be 63.6 µM.
